Test results taken from publication PMC10609152, “Synthesis, Computational, and Anticancer In Vitro Investigations of Aminobenzylnaphthols Derived from 2-Naphtol, Benzaldehydes, and α-Aminoacids via the Betti Reaction” (Molecules, 2023).
Where two headings read alike, the source gives them in different places.

Tests used:
[1] = test system: BxPC-3 cells; experiment: MTT assay, BxPC-3; format: cell-based; settings: Homo sapiens
From the text: (§1) The MTT assay, also known as the 3-(4,5-dimethylthiazol-2-yl)-2,5-diphenyltetrazolium bromide assay, is a colorimetric assay used in biological and biomedical research to determine cell viability and proliferation. The MTT assay works on the assumption that live cells with active metabolism convert MTT into formazan crystals. These crystals are insoluble; however, they can be dissolved in an organic solvent such as DMSO to produce a colorful solution. The color intensity is proportional to the number of viable cells present in the culture.
(§2) BxPC-3, HT-29, and WI-38 cells were seeded on 96-well plates at a density of approximately 8–10 × 10^3 cells per 100 µL medium/well. Cells were allowed to grow for 24 h in controlled conditions (37 °C; 5% CO2). […] The experimental design included nontreated controls and blanks (wells without cells). Following 24 or 72 h of culture with the investigated compounds, 20 μL of MTT tetrazolium salt (5 mg/mL in PBS) was added to each well, and the plates were incubated for 3 h in a humidified environment (37 °C; 5% CO2). The solutions were withdrawn after incubation, and 100 μL of DMSO was added to dissolve the formazan complexes. Afterward, a spectrophotometer (microplate reader Power Wave XS BioTek Instruments, Inc., Winooski, VT, USA) reading at 570 nm was conducted. The experiments were carried out in duplicates.
(§3) GraphPad Prism 7 software was used to calculate the concentration of an MMZ compound reflecting a 50% growth inhibition (IC50). IC50 is defined as a concentration of tested compound that leads to a reduction in cell pool viability by 50% compared to the negative control (accepted as 100%). % cell viability=Absorbance value of treated cells−Absorbance value of blank/(Absorbance value of untreated cells−Absorbance value of blank)×100%

[2] = test system: HT-29 cells; experiment: MTT assay, HT-29; format: cell-based; settings: Homo sapiens
From the text: as §1, §2, §3

[3] = MTT cell viability, WI-38 normal fibroblasts; format: cell-based; settings: human, read-out: % cell viability ± SD; for viability at 24 h: WI-38, 24 h; for viability at 72 h: WI-38, 72 h
Method: as §2, §3

[4] = solubility (remark); format: physicochemical
[5] = BXPC-3, 24 h, read-out: IC50(1)
[6] = BXPC-3, 24 h, read-out: IC50(2)
[7] = BXPC-3, 24 h, read-out: Mean IC50 ± SD
[8] = BXPC-3, 72 h, read-out: IC50(1)
[9] = BXPC-3, 72 h, read-out: IC50(2)
[10] = BXPC-3, 72 h, read-out: Mean IC50 ± SD
[11] = HT-29, 24 h, read-out: Mean IC50 ± SD
[12] = HT-29, 72 h, read-out: Mean IC50 ± SD
[13] = compound at IC50 concentration estimated for BxPC-3 cells
[14] = compound at IC50 concentration obtained for HT-29 cells
[15] = BxPC-3, 24-h MTT, independent experiment 1, read-out: IC50(1)
[16] = BxPC-3, 24-h MTT, independent experiment 2, read-out: IC50(2)
[17] = BxPC-3, 24-h MTT, read-out: Mean IC50 ± SD
[18] = BxPC-3, 72-h MTT, independent experiment 1, read-out: IC50(1)
[19] = BxPC-3, 72-h MTT, independent experiment 2, read-out: IC50(2)
[20] = BxPC-3, 72-h MTT, read-out: Mean IC50 ± SD
[21] = HT-29, 24-h MTT, independent experiment 1, read-out: IC50(1)
[22] = HT-29, 24-h MTT, independent experiment 2, read-out: IC50(2)
[23] = HT-29, 24-h MTT, read-out: Mean IC50 ± SD
[24] = HT-29, 72-h MTT, independent experiment 1, read-out: IC50(1)
[25] = HT-29, 72-h MTT, independent experiment 2, read-out: IC50(2)
[26] = HT-29, 72-h MTT, read-out: Mean IC50 ± SD
[27] = WI-38 normal fibroblast cells, compound at IC50 concentration obtained for HT-29 cells
[28] = WI-38 normal fibroblast cells, compound at IC50 concentration estimated for BxPC-3 cells

Work on `COC(=O)C[C@H](N[C@H](c1ccccc1)c1c(O)ccc2ccccc12)C(=O)OC` (mixture of isomers) [MMZ-147CE, (S,R) and (R,S)-dimethyl ((2-hydroxynaphthalen-1-yl)(phenyl)methyl)-L-aspartate] yielded an IC50 [1, 5] of 54.1 µM, an IC50 [1, 6] of 41 µM and an IC50 [1, 7] of 47.5 ± 9.26 µM. It also gave an IC50 [1, 8] of 59.6 µM, an IC50 [1, 9] of 34.1 µM and an IC50 [1, 10] of 46.8 ± 18 µM. It also gave an IC50 ([2]; HT-29, 24 h, read-out: IC50(1)) of 113 µM, an IC50 ([2]; HT-29, 24 h, read-out: IC50(2)) of 110 µM and an IC50 [2, 11] of 112 ± 2.12 µM. It also gave an IC50 ([2]; HT-29, 72 h, read-out: IC50(1)) of 37.1 µM, an IC50 ([2]; HT-29, 72 h, read-out: IC50(2)) of 46.1 µM and an IC50 [2, 12] of 41.6 ± 6.32 µM. It also gave a viability at 24 h [3, 13] of 82.5 ± 1.8% and a viability at 72 h [3, 14] of 66.9 ± 1.08%.

In the case of `O=c1[nH]cc(F)c(=O)[nH]1` [5-Fluorouracil, reference compound], the IC50 [1, 15] is reported as 49.4 µM, the IC50 [1, 16] is reported as 28.6 µM and the IC50 [1, 17] is reported as 39 ± 14.7 µM. For the same compound, the IC50 [1, 18] was 14.8 µM, the IC50 [1, 19] was 12.1 µM and the IC50 [1, 20] was 13.4 ± 1.9 µM. The IC50 [2, 21] was 48.8 µM, the IC50 [2, 22] was 55.7 µM and the IC50 [2, 23] was 52.3 ± 4.9 µM. It also gave an IC50 [2, 24] of 5.16 µM, an IC50 [2, 25] of 3.6 µM and an IC50 [2, 26] of 4.38 ± 1.1 µM.

For `COC(=O)CC[C@H](N[C@@H](c1ccccc1)c1c(O)ccc2ccccc12)C(=O)OC` (mixture of isomers) [MMZ-148B, (S,S) and (R,R)-dimethyl ((2-hydroxynaphthalen-1-yl)(phenyl)methyl)-L-glutamate], the solubility [4] was “poor solubility”.

In the case of `COC(=O)[C@H](Cc1ccccc1)N[C@H](c1ccccc1)c1c(O)ccc2ccccc12` (mixture of isomers) [MMZ-45B, (S,R) and (R,S)-methyl ((2-hydroxynaphthalen-1-yl)(phenyl)methyl)-L-phenylalaninate], the IC50 [1, 5] is reported as 58.5 µM, the IC50 [1, 6] is reported as 40.5 µM and the IC50 [1, 7] is reported as 49.3 ± 13 µM. The IC50 [1, 8] was 35.6 µM, the IC50 [1, 9] was 24.7 µM and the IC50 [1, 10] was 30.1 ± 7.73 µM. It also gave an IC50 ([2]; HT-29, 24 h, read-out: IC50(1)) of 29 µM, an IC50 ([2]; HT-29, 24 h, read-out: IC50(2)) of 34.6 µM and an IC50 [2, 11] of 31.8 ± 3.93 µM. For the same compound, the IC50 ([2]; HT-29, 72 h, read-out: IC50(1)) was 29.6 µM, the IC50 ([2]; HT-29, 72 h, read-out: IC50(2)) was 38.7 µM and the IC50 [2, 12] was 34.1 ± 6.39 µM. For the same compound, the viability at 24 h [3, 13] was 91.73 ± 0.87%, the viability at 72 h [3, 13] was 86.7 ± 8.14% and the viability at 72 h [3, 14] was 88.2 ± 1.6%.

For `COC(=O)[C@@H](N[C@@H](c1ccc(Cl)cc1)c1c(O)ccc2ccccc12)C(C)C` (mixture of isomers) [MMZ-39AA, (S,S) and (R,R)-methyl ((4-chlorophenyl)(2-hydroxynaphthalen-1-yl)methyl)-D-valinate], the IC50 [1, 15] was 61.4 µM, the IC50 [1, 16] was 60.3 µM and the IC50 [1, 17] was 60.8 ± 0.8 µM. It also gave an IC50 [1, 18] of 44.8 µM, an IC50 [1, 19] of 41.6 µM and an IC50 [1, 20] of 43.2 ± 2.26 µM. It also gave an IC50 [2, 21] of 62.1 µM, an IC50 [2, 22] of 64 µM and an IC50 [2, 23] of 63.1 ± 1.36 µM. For the same compound, the IC50 [2, 24] was 50.6 µM, the IC50 [2, 25] was 65.6 µM and the IC50 [2, 26] was 58.1 µM. The viability at 72 h [3, 27] was 64 ± 4.9%.

With `COC(=O)[C@H](CC(C)C)N[C@@H](c1ccccc1)c1c(O)ccc2ccccc12` (mixture of isomers) [MMZ-167C, (S,S) and (R,R)-methyl ((2-hydroxynaphthalen-1-yl)(phenyl)methyl)-L-leucinate] the IC50 [1, 15] was 71.4 µM, the IC50 [1, 16] was 61 µM and the IC50 [1, 17] was 66.2 ± 7.36 µM. For the same compound, the IC50 [1, 18] was 32.9 µM, the IC50 [1, 19] was 31.2 µM and the IC50 [1, 20] was 32.1 ± 1.15 µM. The IC50 [2, 21] was 47.7 µM, the IC50 [2, 22] was 50 µM and the IC50 [2, 24] was 27.8 µM. The IC50 [2, 25] was 28.4 µM, the IC50 [2, 26] was 28.1 ± 0.375 µM and the viability at 24 h [3, 28] was 76.8 ± 1.8%. It also gave a viability at 24 h [3, 27] of 82.19 ± 0.69%.

For `COC(=O)[C@@H](N[C@@H](c1ccccc1)c1c(O)ccc2ccccc12)C(C)C` (mixture of isomers) [MMZ-33D, (S,S) and (R,R)-methyl ((2-hydroxynaphthalen-1-yl)(phenyl)methyl)-D-valinate], the IC50 [1, 15] was 47.8 µM, the IC50 [1, 16] was 50.8 µM and the IC50 [1, 17] was 49.3 ± 2.09 µM. It also gave an IC50 [1, 18] of 50 µM, an IC50 [1, 19] of 28.7 µM and an IC50 [1, 20] of 39.4 ± 15.1 µM. For the same compound, the IC50 [2, 21] was 60.4 µM, the IC50 [2, 22] was 61.9 µM and the IC50 [2, 23] was 61.1 ± 1.02 µM. It also gave an IC50 [2, 24] of 32.3 µM, an IC50 [2, 25] of 43.4 µM and an IC50 [2, 26] of 37.9 ± 7.86 µM.

For `COC(=O)CC[C@H](N[C@H](c1ccccc1)c1c(O)ccc2ccccc12)C(=O)OC` (mixture of isomers) [MMZ-148C, (S,R) and (R,S)-dimethyl ((2-hydroxynaphthalen-1-yl)(phenyl)methyl)-L-glutamate], the solubility [4] was “poor solubility”.

`COC(=O)C[C@H](N[C@@H](c1ccccc1)c1c(O)ccc2ccccc12)C(=O)OC` (mixture of isomers) [MMZ-147B, (S,S) and (R,R)-dimethyl ((2-hydroxynaphthalen-1-yl)(phenyl)methyl)-L-aspartate] showed an IC50 [1, 15] of 44.8 µM, an IC50 [1, 16] of 59.7 µM and an IC50 [1, 18] of 69.8 µM. It also gave an IC50 [1, 19] of 39.3 µM, an IC50 [1, 20] of 54.6 µM and an IC50 [2, 21] of 44.2 µM. For the same compound, the IC50 [2, 22] was 46.8 µM, the IC50 [2, 23] was 45.5 ± 1.77 µM and the IC50 [2, 24] was 12.2 µM. For the same compound, the IC50 [2, 25] was 17.6 µM, the IC50 [2, 26] was 14.9 ± 3.8 µM and the viability at 24 h [3, 28] was 69.94 ± 0.21%. For the same compound, the viability at 72 h [3, 28] was 72.5 ± 4.37% and the viability at 72 h [3, 27] was 86.8 ± 5%.
